Measurements reported in ChEMBL document CHEMBL3885881, “DrugMatrix”.

Species on record: Rattus norvegicus
Assay: DrugMatrix - Regimen: Daily Repeat
Assay type: toxicity, organism-based, Sprague-Dawley
Parameters: regimen Daily Repeat, gender Male, age 6-8 weeks
Settings: in vivo, po, route oral GAVAGE, vehicle .5 % CMC; for ABSOLUTE BASOPHIL / ABSOLUTE EOSINOPHIL / ABSOLUTE LYMPHOCYTE / ABSOLUTE MONOCYTE / ABSOLUTE SEGMENTED NEUTROPHIL / BASOPHIL / EOSINOPHIL / ERYTHROCYTE COUNT / HEMATOCRIT / HEMOGLOBIN / LEUKOCYTE COUNT / LYMPHOCYTE / MEAN CORPUSCULAR HEMOGLOBIN / MEAN CORPUSCULAR HEMOGLOBIN CONCENTRATION / MEAN CORPUSCULAR VOLUME / MONOCYTE / NEUTROPHIL / NUCLEATED RED BLOOD CELLS / PLATELET COUNT: tissue Blood; for ALANINE AMINOTRANSFERASE / ALBUMIN / ALKALINE PHOSPHATASE / ASPARTATE AMINOTRANSFERASE / BLOOD UREA NITROGEN / CARBON DIOXIDE / CHLORIDE / CHOLESTEROL / CREATINE PHOSPHOKINASE / CREATININE / GLUCOSE / LACTATE DEHYDROGENASE / LIPASE / PHOSPHORUS / POTASSIUM / SODIUM / TOTAL BILIRUBIN / TOTAL PROTEIN / URIC ACID: tissue Plasma
[1] = 0 mg/kg, 72 h, dose level Control, time 3 day
[2] = 0 mg/kg, 120 h, dose level Control, time 5 day
[3] = 29 mg/kg, 72 h, dose level Low, time 3 day

NC(=O)NC(=O)Cc1ccccc1 [PHENACEMIDE]
ABSOLUTE BASOPHIL [1]: 0 CELLS/uL
ABSOLUTE EOSINOPHIL [1]: 15.17 CELLS/uL
ABSOLUTE LYMPHOCYTE [1]: 10149.83 CELLS/uL
ABSOLUTE MONOCYTE [1]: 193.33 CELLS/uL
ABSOLUTE SEGMENTED NEUTROPHIL [1]: 1575 CELLS/uL
BASOPHIL [1]: 0%
EOSINOPHIL [1]: 0.17%
ERYTHROCYTE COUNT [1]: 5.53 x10E6/uL
HEMATOCRIT [1]: 34.7%
HEMOGLOBIN [1]: 12.78 G/DL
LEUKOCYTE COUNT [1]: 11.93 x10E3/uL
LYMPHOCYTE [1]: 85.5%
MEAN CORPUSCULAR HEMOGLOBIN [1]: 23.15 pg
MEAN CORPUSCULAR HEMOGLOBIN CONCENTRATION [1]: 36.9 G/DL
MEAN CORPUSCULAR VOLUME [1]: 62.82 fL
MONOCYTE [1]: 1.5%
NEUTROPHIL [1]: 12.83%
NUCLEATED RED BLOOD CELLS [1]: 0.5 /100WBC
PLATELET COUNT [1]: 994.17 x10E3/uL
ALANINE AMINOTRANSFERASE [1]: 48.17 u/L
ALBUMIN [1]: 4.37 G/DL
ALKALINE PHOSPHATASE [1]: 436.5 u/L
ASPARTATE AMINOTRANSFERASE [1]: 83.17 u/L
BLOOD UREA NITROGEN [1]: 14.67 mg/dL
CARBON DIOXIDE [1]: 30.83 mmol/L
CHLORIDE [1]: 99.17 MEQ/L
CHOLESTEROL [1]: 86.33 mg/dL
CREATINE PHOSPHOKINASE [1]: 243.33 u/L
CREATININE [1]: 0.25 mg/dL
GLUCOSE [1]: 158 mg/dL
LACTATE DEHYDROGENASE [1]: 262.33 u/L
LIPASE [1]: 11 u/L
PHOSPHORUS [1]: 12.07 mg/dL
POTASSIUM [1]: 6.52 MEQ/L
SODIUM [1]: 142.45 MEQ/L
TOTAL BILIRUBIN [1]: 0.17 mg/dL
TOTAL PROTEIN [1]: 6.25 G/DL
URIC ACID [1]: 1.42 mg/dL
ABSOLUTE BASOPHIL [2]: 0 CELLS/uL
ABSOLUTE EOSINOPHIL [2]: 0 CELLS/uL
ABSOLUTE LYMPHOCYTE [2]: 10076.67 CELLS/uL
ABSOLUTE MONOCYTE [2]: 124 CELLS/uL
ABSOLUTE SEGMENTED NEUTROPHIL [2]: 966 CELLS/uL
BASOPHIL [2]: 0%
EOSINOPHIL [2]: 0%
ERYTHROCYTE COUNT [2]: 5.57 x10E6/uL
HEMATOCRIT [2]: 33.37%
HEMOGLOBIN [2]: 12.73 G/DL
LEUKOCYTE COUNT [2]: 11.17 x10E3/uL
LYMPHOCYTE [2]: 90.33%
MEAN CORPUSCULAR HEMOGLOBIN [2]: 22.9 pg
MEAN CORPUSCULAR HEMOGLOBIN CONCENTRATION [2]: 38.18 G/DL
MEAN CORPUSCULAR VOLUME [2]: 59.97 fL
MONOCYTE [2]: 1%
NEUTROPHIL [2]: 8.67%
NUCLEATED RED BLOOD CELLS [2]: 0 /100WBC
PLATELET COUNT [2]: 1078 x10E3/uL
ALANINE AMINOTRANSFERASE [2]: 37.17 u/L
ALBUMIN [2]: 4.2 G/DL
ALKALINE PHOSPHATASE [2]: 322.17 u/L
ASPARTATE AMINOTRANSFERASE [2]: 67.67 u/L
BLOOD UREA NITROGEN [2]: 14 mg/dL
CARBON DIOXIDE [2]: 27.67 mmol/L
CHLORIDE [2]: 102.17 MEQ/L
CHOLESTEROL [2]: 67.67 mg/dL
CREATINE PHOSPHOKINASE [2]: 171.83 u/L
CREATININE [2]: 0.27 mg/dL
GLUCOSE [2]: 172 mg/dL
LACTATE DEHYDROGENASE [2]: 85.33 u/L
LIPASE [2]: 8.67 u/L
PHOSPHORUS [2]: 12 mg/dL
POTASSIUM [2]: 6.09 MEQ/L
SODIUM [2]: 144.82 MEQ/L
TOTAL BILIRUBIN [2]: 0.13 mg/dL
TOTAL PROTEIN [2]: 6.07 G/DL
URIC ACID [2]: 2.13 mg/dL
ABSOLUTE BASOPHIL [3]: 0 CELLS/uL
ABSOLUTE EOSINOPHIL [3]: 0 CELLS/uL
ABSOLUTE LYMPHOCYTE [3]: 6638.67 CELLS/uL
ABSOLUTE MONOCYTE [3]: 81.67 CELLS/uL
ABSOLUTE SEGMENTED NEUTROPHIL [3]: 1179.67 CELLS/uL
BASOPHIL [3]: 0%
EOSINOPHIL [3]: 0%
ERYTHROCYTE COUNT [3]: 4.84 x10E6/uL
HEMATOCRIT [3]: 29.67%
HEMOGLOBIN [3]: 11.57 G/DL
LEUKOCYTE COUNT [3]: 7.9 x10E3/uL
LYMPHOCYTE [3]: 84%
MEAN CORPUSCULAR HEMOGLOBIN [3]: 23.9 pg
MEAN CORPUSCULAR HEMOGLOBIN CONCENTRATION [3]: 39 G/DL
MEAN CORPUSCULAR VOLUME [3]: 61.37 fL
MONOCYTE [3]: 1%
NEUTROPHIL [3]: 15%
NUCLEATED RED BLOOD CELLS [3]: 0.67 /100WBC
PLATELET COUNT [3]: 982 x10E3/uL
ALANINE AMINOTRANSFERASE [3]: 51 u/L
ALBUMIN [3]: 4.1 G/DL
ALKALINE PHOSPHATASE [3]: 430.67 u/L
ASPARTATE AMINOTRANSFERASE [3]: 87.33 u/L
BLOOD UREA NITROGEN [3]: 15.67 mg/dL
CARBON DIOXIDE [3]: 30 mmol/L
CHLORIDE [3]: 101 MEQ/L
CHOLESTEROL [3]: 78.67 mg/dL
CREATINE PHOSPHOKINASE [3]: 358 u/L
CREATININE [3]: 0.27 mg/dL
GLUCOSE [3]: 152.67 mg/dL
LACTATE DEHYDROGENASE [3]: 97 u/L
LIPASE [3]: 9.67 u/L
PHOSPHORUS [3]: 12.5 mg/dL
POTASSIUM [3]: 6.3 MEQ/L
SODIUM [3]: 145.1 MEQ/L
TOTAL BILIRUBIN [3]: 0.13 mg/dL
TOTAL PROTEIN [3]: 5.83 G/DL
URIC ACID [3]: 0.97 mg/dL
